In patent US11230555B2, “Bicyclic RORγ modulators” (Escalier Biosciences B.V., priority 2018, dated 2022):

Target: T1, RORγt (Homo sapiens, UniProt P51449)
T1 construct: purchased reporter-cell kit
T1 sequence (P51449 269-508 limits assumed): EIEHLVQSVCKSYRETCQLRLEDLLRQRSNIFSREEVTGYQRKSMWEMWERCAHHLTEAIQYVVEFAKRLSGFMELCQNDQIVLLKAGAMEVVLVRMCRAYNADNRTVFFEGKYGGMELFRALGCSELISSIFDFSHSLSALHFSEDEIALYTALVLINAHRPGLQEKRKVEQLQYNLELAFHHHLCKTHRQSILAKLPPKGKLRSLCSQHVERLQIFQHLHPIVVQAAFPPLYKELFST
Experiment: Gal4 ligand binding assay (RORγt Gal fusion reporter assay)
Assay type: cell-based
Details: inverse agonists, luciferase reporter, 24h
Method: Compounds of the present invention were tested in a human RORγ ligand binding assay using a commercially available cell based ligand binding reporter assay in 96-well format (Cat #IB04001, INDIGO Biosciences, State College, Pa.). The N-terminal DNA binding domains (DBD) of the native RORγ and RORγt receptors have been substituted with that of the yeast GAL4-DBD and stably transfected in […] cells that also stably express luciferase under the regulation by upstream activation sequence of yeast Gal4. These cells constitutively express high level RORγ activity due to binding of endogenous co-factors. Both agonist and inverse agonist activity can be detected. The assay was performed according to kit manufacturer's instructions as follows. 10 mM compound stocks were diluted serially 1:3 with DMSO and further diluted with provided media to generate 10 titration points from 60 μM to 3 nM. These treatment conditions were added to the plates as 2× media in 100 μL volume. Each plate includes a positive control with 10 titration points as well as 6negative control wells with vehicle only, with final DMSO concentration of 0.2%. RORγ reporter cells were rapidly thawed and added to the plates in 100 μL volume. The plates were incubated for 24h in a 37° C. humidified 5% CO2incubator. Media was removed before the addition of room temperature luciferous detection substrate. After 5 minute incubation, relative light units (RLUs) were quantified using a plate reading luminometer. Data was normalized to positive control wells with only […]. Before establishing internal controls, ursolic acid was used as control.

Structure (SMILES)	IC50
CC(C)c1cc(CN2CC3CCC(C2)N3S(C)(=O)=O)ccc1-c1ccc(C(O)(C(F)(F)F)C(F)(F)F)cc1F [Example 21]	50 to 250 nM
CCc1cc(CN2CC3CCC2CN3S(C)(=O)=O)ccc1-c1ccc(C(O)(C(F)(F)F)C(F)(F)F)cc1 (stereo not drawn) [Example 37, 2-(2′-ethyl-4′-((5-(methylsulfonyl)-2,5-diazabicyclo[2.2.2]octan-2-yl)methyl)-[1,1′-biphenyl]-4-yl)-1,1,1,3,3,3-hexafluoropropan-2-ol]	50 to 250 nM
Cc1cc(CN2CC3CCC(C2)N3S(=O)(=O)C2CC2)ccc1-c1ccc(C(O)(C(F)(F)F)C(F)(F)F)cc1 [Example 64, 2-(4′-((8-(cyclopropylsulfonyl)-3,8-diazabicyclo[3.2.1]octan-3-yl)methyl)-2′-methyl-[1,1′-biphenyl]-4-yl)-1,1,1,3,3,3-hexafluoropropan-2-ol]	50 to 250 nM
CCc1cc(CN2C3CCC2CN(S(C)(=O)=O)C3)ccc1-c1ccc(C(O)(C(F)(F)F)C(F)(F)F)cc1Cl [Example 7, 2-(2-chloro-2′-ethyl-4′-((3-(methylsulfonyl)-3,8-diazabicyclo[3.2.1]octan-8-yl)methyl)-[1,1′-biphenyl]-4-yl)-1,1,1,3,3,3-hexafluoropropan-2-ol]	< 50 nM
Cc1cc(CN2C3CCC2CN(Cc2ccc(-c4ccc(C(O)(C(F)(F)F)C(F)(F)F)cc4)c(C)c2)C3)ccn1 [Example 66, 1,1,1,3,3,3-hexafluoro-2-(2′-methyl-4′-((8-((2-methylpyridin-4-yl)methyl)-3,8-diazabicyclo[3.2.1]octan-3-yl)methyl)-[1,1′-biphenyl]-4-yl)propan-2-ol]	> 250 nM
COCC(=O)N1C2CCC1CN(Cc1ccc(-c3ccc(C(O)(C(F)(F)F)C(F)(F)F)cc3)c(C)c1)C2 [Example 54, 1-(3-((4′-(1,1,1,3,3,3-hexafluoro-2-hydroxypropan-2-yl)-2-methyl-[1,1′-biphenyl]-4-yl)methyl)-3,8-diazabicyclo[3.2.1]octan-8-yl)-2-methoxyethan-1-one]	50 to 250 nM
CCc1cc(CN2CC3CCC(C2)N3S(C)(=O)=O)c(F)c(F)c1-c1ccc(C(O)(C(F)(F)F)C(F)(F)F)cc1C [Example 29, 2-(6′-ethyl-2′,3′-difluoro-2-methyl-4′-((8-(methylsulfonyl)-3,8-diazabicyclo[3.2.1]octan-3-yl)methyl)-[1,1′-biphenyl]-4-yl)-1,1,1,3,3,3-hexafluoropropan-2-ol]	< 50 nM
OC(c1ccc(-c2ccc(CN3C4CCC3CN(Cc3ccncc3)C4)cc2)cc1)(C(F)(F)F)C(F)(F)F [Example 2, 1,1,1,3,3,3-hexafluoro-2-(4′-((3-(pyridin-4-ylmethyl)-3,8-diazabicyclo[3.2.1]octan-8-yl)methyl)-[1,1′-biphenyl]-4-yl)propan-2-ol]	> 250 nM
CCc1nc(CN2CC3CCC(C2)N3S(C)(=O)=O)ccc1-c1ccc(C(O)(C(F)(F)F)C(F)(F)F)cc1C [Example 5, 2-(4-(2-ethyl-6-((8-(methylsulfonyl)-3,8-diazabicyclo[3.2.1]octan-3-yl)methyl)pyridin-3-yl)-3-methylphenyl)-1,1,1,3,3,3-hexafluoropropan-2-ol]	> 250 nM
CCc1cc(CN2CC3CCC(C2)N3S(C)(=O)=O)ccc1-c1ccc(C(O)(C(F)(F)F)C(F)(F)F)cc1C [Example 34, 2-(2′-ethyl-2-methyl-4′-((8-(methylsulfonyl)-3,8-diazabicyclo[3.2.1]octan-3-yl)methyl)-[1,1′-biphenyl]-4-yl)-1,1,1,3,3,3-hexafluoropropan-2-ol]	< 50 nM
Cc1cc(C(O)(C(F)(F)F)C(F)(F)F)ccc1-c1cc(F)c(CN2CC3CCC(C2)N3S(C)(=O)=O)cc1C(C)C [Example 20, 1,1,1,3,3,3-hexafluoro-2-(5′-fluoro-2′-isopropyl-2-methyl-4′-((8-(methylsulfonyl)-3,8-diazabicyclo[3.2.1]octan-3-yl)methyl)-[1,1′-biphenyl]-4-yl)propan-2-ol]	50 to 250 nM
COCCC(=O)N1C2CCC1CN(Cc1ccc(-c3ccc(C(O)(C(F)(F)F)C(F)(F)F)cc3)c(C)c1)C2 [Example 45, 1-(3-((4′-(1,1,1,3,3,3-hexafluoro-2-hydroxypropan-2-yl)-2-methyl-[1,1′-biphenyl]-4-yl)methyl)-3,8-diazabicyclo[3.2.1]octan-8-yl)-3-methoxypropan-1-one]	> 250 nM
Cc1cc(CN2CC3CCC(C2)N3S(=O)(=O)c2ccc(F)cc2)ccc1-c1ccc(C(O)(C(F)(F)F)C(F)(F)F)cc1 [Example 62, 1,1,1,3,3,3-hexafluoro-2-(4′-((8-((4-fluorophenyl)sulfonyl)-3,8-diazabicyclo[3.2.1]octan-3-yl)methyl)-2′-methyl-[1,1′-biphenyl]-4-yl)propan-2-ol]	> 250 nM
CCc1cc(CN2CC3CCC(C2)N3S(C)(=O)=O)ccc1-c1ccc(C(O)(C(F)(F)F)C(F)(F)F)cn1 [Example 32, 2-(6-(2-ethyl-4-((8-(methylsulfonyl)-3,8-diazabicyclo[3.2.1]octan-3-yl)methyl)phenyl)pyridin-3-yl)-1,1,1,3,3,3-hexafluoropropan-2-ol]	50 to 250 nM
CCc1c(F)c(CN2CC3CCC(C2)N3S(C)(=O)=O)cc(F)c1-c1ccc(C(O)(C(F)(F)F)C(F)(F)F)cc1C [Example 30, 2-(2′-ethyl-3′,6′-difluoro-2-methyl-4′-((8-(methylsulfonyl)-3,8-diazabicyclo[3.2.1]octan-3-yl)methyl)-[1,1′-biphenyl]-4-yl)-1,1,1,3,3,3-hexafluoropropan-2-ol]	< 50 nM
CCc1cc(CN2C3CCC2CN(S(C)(=O)=O)C3)ccc1-c1ccc(C(O)(C(F)(F)F)C(F)(F)F)cc1 [Example 6, 2-(2′-ethyl-4′-((3-(methylsulfonyl)-3,8-diazabicyclo[3.2.1]octan-8-yl)methyl)-[1,1′-biphenyl]-4-yl)-1,1,1,3,3,3-hexafluoropropan-2-ol]	50 to 250 nM
CCc1cc(C(O)(C(F)(F)F)C(F)(F)F)ccc1-c1ccc(CN2CC3CCC(C2)N3S(C)(=O)=O)cc1C [Example 26, 2-(2-ethyl-2′-methyl-4′-((8-(methylsulfonyl)-3,8-diazabicyclo[3.2.1]octan-3-yl)methyl)-[1,1′-biphenyl]-4-yl)-1,1,1,3,3,3-hexafluoropropan-2-ol]	< 50 nM
OC(c1ccc(-c2ccc(CN3CC4CCC(C3)N4Cc3ccncc3)cc2Cl)cc1)(C(F)(F)F)C(F)(F)F [Example 56, 2-(2′-chloro-4′-((8-(pyridin-4-ylmethyl)-3,8-diazabicyclo[3.2.1]octan-3-yl)methyl)-[1,1′-biphenyl]-4-yl)-1,1,1,3,3,3-hexafluoropropan-2-ol]	< 50 nM
Cc1cc(CN2C3CCC2CN(Cc2ccc(-c4ccc(C(O)(C(F)(F)F)C(F)(F)F)cc4)c(Cl)c2)C3)ccn1 [Example 48, 2-(2′-chloro-4′-((8-((2-methylpyridin-4-yl)methyl)-3,8-diazabicyclo[3.2.1]octan-3-yl)methyl)-[1,1′-biphenyl]-4-yl)-1,1,1,3,3,3-hexafluoropropan-2-ol]	50 to 250 nM
Cc1cc(CN2CC3CCC(C2)N3c2noc(C(C)(C)C)n2)ccc1-c1ccc(C(O)(C(F)(F)F)C(F)(F)F)cc1 [Example 36, 2-(4′-((8-(5-(tert-butyl)-1,2,4-oxadiazol-3-yl)-3,8-diazabicyclo[3.2.1]octan-3-yl)methyl)-2′-methyl-[1,1′-biphenyl]-4-yl)-1,1,1,3,3,3-hexafluoropropan-2-ol]	> 250 nM
CS(=O)(=O)N1C2CCC1CN(Cc1ccc(-c3ccc(C(O)(C(F)(F)F)C(F)(F)F)cc3)c(F)c1)C2 [Example 61, 1,1,1,3,3,3-hexafluoro-2-(2′-fluoro-4′-((8-(methylsulfonyl)-3,8-diazabicyclo[3.2.1]octan-3-yl)methyl)-[1,1′-biphenyl]-4-yl)propan-2-ol]	> 250 nM
OC(c1ccc(-c2ccc(CN3CC4CCC(C3)N4Cc3ccncc3)cc2)cc1)(C(F)(F)F)C(F)(F)F [Example 1, 1,1,1,3,3,3-hexafluoro-2-(4′-((8-(pyridin-4-ylmethyl)-3,8-diazabicyclo[3.2.1]octan-3-yl)methyl)-[1,1′-biphenyl]-4-yl)propan-2-ol]	50 to 250 nM
CCS(=O)(=O)N1C2CCC1CN(Cc1ccc(-c3ccc(C(O)(C(F)(F)F)C(F)(F)F)cc3)c(C)c1)C2 [Example 69, 2-(4′-((8-(ethylsulfonyl)-3,8-diazabicyclo[3.2.1]octan-3-yl)methyl)-2'-methyl-[1,1′-biphenyl]-4-yl)-1,1,1,3,3,3-hexafluoropropan-2-ol]	> 250 nM
Cc1cc(CN2CC3CCC(C2)N3Cc2ccncn2)ccc1-c1ccc(C(O)(C(F)(F)F)C(F)(F)F)cc1 [Example 47, 1,1,1,3,3,3-hexafluoro-2-(2′-methyl-4′-((8-(pyrimidin-4-ylmethyl)-3,8-diazabicyclo[3.2.1]octan-3-yl)methyl)-[1,1′-biphenyl]-4-yl)propan-2-ol]	< 50 nM
